Source: patent US8247552B2, “Analogs of dehydrophenylahistins and their therapeutic use” (Nereus Pharmaceuticals, Inc., priority 2002, dated 2012)
≈ marks a conversion by molar mass, not a printed value. Like-named read-outs stand apart in the source and are kept apart here. Each block holds one molecule with its values, some of them ahead of it.

Legend:
Trichophyton rubrum = assay: Antifungal susceptibility testing (NCCLS M38-A), MIC/MFC; type: cell-based; details: for antifungal potency compared with griseofulvin: dermatophyte isolates
Experimental: (§1) Specifically, disclosed compounds were evaluated alongside commercially available microtubulin inhibitors as well as recognized antifungal agents.
(§2) Microorganisms against which these compounds were tested included: Candida albicans, Candida glabrata, Aspergillus fumigatus, Trichophyton rubrum, Trichophyton mentagrophytes, Epidermophyton floccosum. With the exception of Candida glabrata (one isolate), two isolates of each species were tested.
(§3) The minimum lethal concentration (MLC) was determined by plating […] from the MIC concentration and each concentration above the MIC. […] When a MIC was obtained, a minimum fungicidal concentration (MFC) was determined to assess the fungistatic/fungicidal nature of the compound.

[1] = test system: Trichophyton mentagrophytes; assay: as above; type: cell-based
Experimental: Specifically, disclosed compounds were evaluated alongside commercially available microtubulin inhibitors as well as recognized antifungal agents. […].
as §2
Drug concentrations were 0.03-16 μg/ml for the investigational compounds, 0.015-8 μg/ml for itraconazole and griseofulvin.
as §3, with “compound. […] The compound is scored as fungistatic if the cells are able to resume growth and fungicidal if no regrowth is possible because the compound had killed the organisms.” for “compound.”

[2] = test system: MCF7 cells (GFP-alpha-tubulin); assay: Microtubule dynamic instability in living MCF7 cells (time-lapse microscopy); type: cell-based, human
HuVEC cells = assay: Microtubule (tubulin) depolymerization, α-tubulin staining; details: 2 μM, thirty minutes exposure
HT-29 human colon cells = assay: Tumor cytotoxicity / cell growth inhibition assay, resazurin fluorescence, 48 h; type: cell-based; details: for EC50: Homo sapiens
[3] = test system: MES-SA/Dx5 (Taxol resistant) human uterine sarcoma; assay: Cytotoxicity / growth inhibition in multidrug resistant uterine sarcoma cells; type: cell-based
Experimental: 1) Human Uterine Sarcoma Tumor Cell Line Pair: MES-SA (Taxol Sensitive) and MES-SA/Dx5 (Taxol Resistant).
HL-60 and HL-60/MX2 cells were both seeded at 5×10^4 cells/well in 90 μl complete media into 96 well plates on the day of compound addition. […] Ten μl volumes of the 10× serial dilutions were added to the test wells in triplicate and the plates returned to the incubator for 48 hours.
Resazurin dye in medium without cells was used to determine the background, which was subtracted from the data for all experimental wells.
The multidrug resistant MES-SA/Dx5 tumor cell line was derived from the human uterine sarcoma MES-SA tumor cell line and expresses elevated P-Glycoprotein (P-gp), an ATP dependent efflux pump. […] Paclitaxel, a known substrate of the P-gp pump was included as a control.

Candida albicans = assay: Antifungal susceptibility testing (NCCLS M38-A), MIC/MFC; type: cell-based; details: Table 23
Experimental: as §1, §2, §3

Candida glabrata = assay: as above; type: cell-based; details: Table 23
Experimental: as §1, §2, §3

MCF-7 human breast tumor = assay: MCF-7 Human Breast Tumor Xenograft Model; type: in vivo, mice; details: combination with taxotere
Experimental: Animals used were (exceptions are indicated for individual studies): female nude mice (nu/nu) between 5 and 6 weeks of age (˜20 g, Harlan); group size was 9-10 mice per group unless otherwise indicated.
Female nude mice (˜20 g) were implanted s.c. with 21-day release estrogen (0.25 mg) pellets 24 hours prior to the s.c. implantation with MCF-7 tumor fragments (harvested from s.c. tumors in nude mice hosts). The study then proceeded as described for the HT-29 model, using taxotere as the standard chemotherapy agent.
In this model unless otherwise noted for the individual study, the novel compounds were injected via the intraperitoneal route daily on Days 1-5, inclusive (qdx5); taxotere was administered intravenously on Days 1, 3 and 5 (qodx3).
The doses of the compounds were administered on Days 1, 2, 3, 4, and 7; Taxotere was administered on Days 1, 3 and 7.

[4] = test system: Jurkat cells (human T cell leukemia line); assay: DNA fragmentation (DNA laddering) by gel electrophoresis; type: cell-based
Source text: A late stage characteristic of apoptosis is internucleosomal DNA cleavage that results in a distinctive ladder pattern that can be visualized by gel electrophoresis.

[5] = Table 28, 25% of the maximal mitotic block
[6] = Table 29, 50% of the maximal mitotic block

Molecule: C=CC(C)(C)c1[nH]cnc1/C=C1\NC(=O)[C@H](Cc2ccccc2)NC1=O [(−)-Phenylahistin]
- potency versus T. rubrum (Trichophyton rubrum): significantly less potent than the other compounds
- potency versus sensitive T. mentagrophytes isolate [1]: weaker but more comparable to the others

Molecule: COc1ccc(/C=C\c2cc(OC)c(OC)c(OC)c2)cc1O [CA4, Combretastatin A4]
- % time spent Attenuation [2, 5]: 39.50%
- % time spent Growth [2, 5]: 35.31%
- % time spent Shortening [2, 5]: 25.19%
- Freq. of (min-1) Catastrophe [2, 5]: 1.52 min⁻¹
- Freq. of (min-1) Rescue [2, 5]: 1.90 min⁻¹
- Mean duration (min) Attenuation [2, 5]: 0.45 min
- Mean duration (min) Growth [2, 5]: 0.27 min
- Mean duration (min) Shortening [2, 5]: 0.21 min
- Mean rates (μm/min) Shortening [2, 5]: 40.21 μm/min
- Mean rates (μm/min) Growth ([2]; Table 28, concentration effecting 25% of the maximal mitotic block in MCF7 cells): 10.59 μm/min
- Dyn. (μm/min) ([2]; Table 28, dynamicity, 25% of the maximal mitotic block): 13.87 μm/min
- % time spent Attenuation [2, 6]: 36.23%
- % time spent Growth [2, 6]: 43.64%
- % time spent Shortening [2, 6]: 20.13%
- Dynamicity (μm/min) [2, 6]: 10.91 μm/min
- Freq. of (min-1) Catastrophe [2, 6]: 1.09 min⁻¹
- Freq. of (min-1) Rescue [2, 6]: 2.79 min⁻¹
- Mean duration (min) Attenuation [2, 6]: 0.55 min
- Mean duration (min) Growth [2, 6]: 0.33 min
- Mean duration (min) Shortening [2, 6]: 0.22 min
- Mean rates (μm/min) Shortening [2, 6]: 29.88 μm/min
- Mean rates (μm/min) Growth ([2]; Table 29, concentration effecting 50% of the maximal mitotic block in MCF7 cells): 11.21 μm/min
- effect on MT dynamic instability ([2]; concentrations effecting 25% or 50% of maximal mitotic block): did not have a measurable effect on MT dynamic instability

Molecule: COc1cc2c(c(OC)c1OC)-c1ccc(OC)c(=O)cc1[C@@H](NC(C)=O)CC2 [Colchicine]
- microtubule depolymerization in HuVEC cells (HuVEC cells): induced microtubule depolymerization

Molecule: COc1cc(/C=c2\[nH]c(=O)/c(=C/c3nc[nH]c3C(C)(C)C)[nH]c2=O)cc(OC)c1OC [KPU-11, tBu-ΔPLH-3,4,5-triOMe]
- cytotoxic activity against HT-29 cells (HT-29 human colon cells): also showed activity
- antifungal potency compared with griseofulvin (Trichophyton rubrum): equivalent in potency or in some cases more potent than griseofulvin

Molecule: COc1cc(/C=c2\[nH]c(=O)/c(=C/c3nc[nH]c3C(C)(C)C)[nH]c2=O)cc(OC)c1 [KPU-16, tBu-ΔPLH-3,5-diOMe]
- cytotoxic activity against HT-29 cells (HT-29 human colon cells): showed high activity

Molecule: COc1ccc(/C=c2\[nH]c(=O)/c(=C/c3nc[nH]c3C(C)(C)C)[nH]c2=O)c(OC)c1OC [KPU-17, tBu-ΔPLH-2,3,4-TriOMe]
- cytotoxic activity against HT-29 cells (HT-29 human colon cells): also showed activity
- antifungal potency compared with griseofulvin (Trichophyton rubrum): equivalent in potency or in some cases more potent than griseofulvin

Molecule: Cc1ccsc1/C=c1\[nH]c(=O)/c(=C/c2nc[nH]c2C(C)(C)C)[nH]c1=O [KPU-29, tBu-ΔPLH-3-Me-2-thienyl]
- cytotoxic activity against HT-29 cells (HT-29 human colon cells): exhibited activity

Molecule: COc1cc(OC)c(/C=c2\[nH]c(=O)/c(=C/c3nc[nH]c3C(C)(C)C)[nH]c2=O)c(OC)c1 [KPU-45, tBu-ΔPLH-2,4,6-TriOMe]
- cytotoxic activity against HT-29 cells (HT-29 human colon cells): also showed activity

Molecule: CC(C)(C)c1[nH]cnc1/C=c1\[nH]c(=O)/c(=C/c2cccc(OC(F)(F)F)c2)[nH]c1=O [KPU-80, TBu- ΔPLH—m-OCF3]
- activity compared with tBu-dehydroPLH (HT-29 human colon cells): higher activity than tBu-dehydroPLH

Molecule: COc1ccc(F)c(/C=c2\[nH]c(=O)/c(=C/c3nc[nH]c3C(C)(C)C)[nH]c2=O)c1 [KPU-81, TBu-ΔPLH-2-F-5-OMe]
- activity compared with tBu-dehydroPLH (HT-29 human colon cells): higher activity than tBu-dehydroPLH

Molecule: CC(=O)O[C@H]1C(=O)[C@@]2(C)[C@H]([C@H](OC(=O)c3ccccc3)[C@]3(O)C[C@H](OC(=O)[C@H](O)[C@@H](NC(=O)c4ccccc4)c4ccccc4)C(C)=C1C3(C)C)[C@]1(OC(C)=O)CO[C@@H]1C[C@@H]2O [Paclitaxel]
- times less active against resistant MES-SA/Dx5 cells ([3]; versus MES-SA, Example 11): ~400 times

Molecule: C[C@@H]1[C@H](O)[C@@H](C)/C=C/C=C/C=C/C=C/C=C/C=C/C=C/[C@H](O[C@@H]2O[C@H](C)[C@@H](O)[C@H](N)[C@@H]2O)C[C@@H]2O[C@](O)(C[C@@H](O)C[C@@H](O)[C@H](O)CC[C@@H](O)C[C@@H](O)CC(=O)O[C@H]1C)C[C@H](O)[C@H]2C(=O)O [amphotericin B, Amphotericin B]
- MFC C. albicans 10231 (Candida albicans): 0.5 µg/mL (≈ 0.541 µM)
- MFC C. albicans 90028 (Candida albicans): 0.5 µg/mL (≈ 0.541 µM)
- MIC C. albicans 10231 (Candida albicans): 0.5 µg/mL (≈ 0.541 µM)
- MIC C. albicans 90028 (Candida albicans): 0.5 µg/mL (≈ 0.541 µM)
- MFC C. glabrata (Candida glabrata): 1 µg/mL (≈ 1.08 µM)
- MIC C. glabrata (Candida glabrata): 1 µg/mL (≈ 1.08 µM)

Molecule: CC(C)(C)c1[nH]cnc1/C=c1\[nH]c(=O)/c(=C/c2ccccc2)[nH]c1=O [compound 2421]
- EC50 (HT-29 human colon cells; HT-29, read-out: EC50 (M) Mean, Table 3.1, cell line not given, assay as above): 2.22e-08 M
- % cytotox Mean (HT-29 human colon cells; Table 3.1, cell line not given): 88%

Molecule: CC(C)(C)c1ocnc1/C=c1\[nH]c(=O)/c(=C/c2ccccc2F)[nH]c1=O [compound 2475, tBu-Oxadelta-PLH-2-F]
- EC50 (HT-29 human colon cells; Table 3.2, HT-29 cells, 48 hours, read-out: EC50 (M) Mean): 4.66e-08 M

Molecule: COc1cccc2c1C(=O)c1c(O)c3c(c(O)c1C2=O)C[C@@](O)(C(=O)CO)C[C@@H]3O[C@H]1C[C@H](N)[C@H](O)[C@H](C)O1 [doxorubicin, Doxorubicin]
- reduced susceptibility of MES-SA/DX5 cell line ([3]; versus MES-SA): 34 fold

Molecule: COc1cc([C@@H]2c3cc4c(cc3[C@@H](O[C@@H]3O[C@@H]5CO[C@@H](C)O[C@H]5[C@H](O)[C@H]3O)[C@H]3COC(=O)[C@H]23)OCO4)cc(OC)c1O [etoposide, Etoposide]
- reduced susceptibility of MES-SA/DX5 cell line ([3]; versus MES-SA): 60 fold

Molecule: CC(C)(C)c1[nH]cnc1/C=C1\NC(=O)[C@H](Cc2ccccc2)NC1=O [t-butyl-phenylahistin]
- potency in resistant MES-SA/DX5 versus sensitive MES-SA line [3]: only slightly reduced
- effect on estimated tumor growth with taxotere (MCF-7 human breast tumor): significant potentiation of taxotere
- antifungal potency compared with griseofulvin (Trichophyton rubrum): equivalent in potency or in some cases more potent than griseofulvin
- microtubule depolymerization in HuVEC cells (HuVEC cells): induced microtubule depolymerization

Molecule: CC(C)(C)c1[nH]cnc1/C=c1\[nH]c(=O)/c(=C/c2ccccc2)[nH]c1=O [tBu-dehydrophenylahistin, 3-Z-Benzylidene-6-(5″-tert-butyl-1H-imidazol-4″-Z-ylmethylene)-piperazine-2,5-dione]
- cytotoxic activity in comparison with dehydrophenylahistin (HT-29 human colon cells; Table 1 data): ~4 times

- metabolites detected (human hepatic P450s): at least seven metabolites were detected
- share of major metabolites P1 and P3 in recovered metabolites (human hepatic P450s): more than 60%
Molecule: (±)-phenylahistin

Molecule: phenylahistin [halimide]
- DNA laddering, potency compared with KPU-2 [4]: much less potent
